Legend:
Assay in all cases: relative viability (nuclei count vs DMSO), 5 days (fraction); higher = more cells survive
Irinotecan + OSI-027 = compound: CCc1c2c(nc3ccc(OC(=O)N4CCC(N5CCCCC5)CC4)cc13)-c1cc3c(c(=O)n1C2)COC(=O)[C@]3(O)CC [Irinotecan] + COc1cccc2cc(-c3nc([C@H]4CC[C@H](C(=O)O)CC4)n4ncnc(N)c34)[nH]c12 [OSI-027] (partner 0.5 µM)
Summary of the method: (§1)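 Relative viability is defined as nuclei in treated wells over nuclei in vehicle wells. Duplicate plates were run and medians reported. Lung cancer cell lines in 1536-well plates were dosed by pin tool one day after seeding, with one drug or with a fixed anchor-drug dose plus five library-drug doses (not always all listed) in √10 steps, and nuclei were counted after 5 days.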

RU-SKI 43 + Dasatinib = compound: CC[C@@H](C)CNCC(=O)N1CCC2=C([C@@H]1COC3=CC=CC(=C3)C)C=CS2 [RU-SKI 43] + Cc1nc(Nc2ncc(C(=O)Nc3c(C)cccc3Cl)s2)cc(N2CCN(CCO)CC2)n1 [Dasatinib] (partner 0.075 µM)
Summary of the method: as §1

RU-SKI 43 + Luminespib = compound: CC[C@@H](C)CNCC(=O)N1CCC2=C([C@@H]1COC3=CC=CC(=C3)C)C=CS2 [RU-SKI 43] + CCNC(=O)c1noc(-c2cc(C(C)C)c(O)cc2O)c1-c1ccc(CN2CCOCC2)cc1 [Luminespib] (partner 0.01 µM)
Summary of the method: as §1

MK-8033 + Vorinostat = compound: Cn1cc(-c2cnc3ccc4ccc(CS(=O)(=O)NCc5ccccn5)cc4c(=O)c3c2)cn1 [MK-8033] + O=C(CCCCCCC(=O)Nc1ccccc1)NO [Vorinostat] (partner 1 µM)
Summary of the method: as §1

Row | Cell Line | relative viability (Irinotecan + OSI-027; first compound 0.6325 µM) | relative viability (Irinotecan + OSI-027; first compound 2 µM) | relative viability (Irinotecan + OSI-027; first compound 6.325 µM) | relative viability (Irinotecan + OSI-027; first compound 20 µM) | relative viability (RU-SKI 43 + Dasatinib; first compound 0.1 µM) | relative viability (RU-SKI 43 + Dasatinib; first compound 0.3162 µM) | relative viability (RU-SKI 43 + Dasatinib; first compound 1 µM) | relative viability (RU-SKI 43 + Dasatinib; first compound 3.162 µM) | relative viability (RU-SKI 43 + Dasatinib; first compound 10 µM) | relative viability (RU-SKI 43 + Luminespib; first compound 0.1 µM) | relative viability (RU-SKI 43 + Luminespib; first compound 0.3162 µM) | relative viability (RU-SKI 43 + Luminespib; first compound 1 µM) | relative viability (RU-SKI 43 + Luminespib; first compound 3.162 µM) | relative viability (RU-SKI 43 + Luminespib; first compound 10 µM) | relative viability (MK-8033 + Vorinostat; first compound 0.02 µM) | relative viability (MK-8033 + Vorinostat; first compound 0.06325 µM) | relative viability (MK-8033 + Vorinostat; first compound 0.2 µM) | relative viability (MK-8033 + Vorinostat; first compound 0.6325 µM) | relative viability (MK-8033 + Vorinostat; first compound 2 µM)
1 | NCI-H522 | 1.07 | 0.643 | 0.645 | 0.569 | 0.896 | 0.954 | 1.11 | 1.03 | 0.828 | 1.28 | 1.14 | 1.14 | 1.05 | 1.17 | 0.796 | 0.741 | 0.829 | 0.895 | 0.942
2 | NCI-H596 | 0.579 | 0.927 | 0.728 | 0.581 | 0.635 | 0.646 | 0.62 | 0.653 | 0.587 | 0.89 | 1.05 | 1.06 | 1.12 | 0.744 | 0.59 | 0.629 | 0.549 | 0.64 | 0.568
3 | NCI-H647 | 0.564 | 0.634 | 0.277 | 0.183 | 0.155 | 0.226 | 0.223 | 0.192 | 0.135 | 0.163 | 0.325 | 0.236 | 0.123 | 0.221 | 0.633 | 0.378 | 0.527 | 0.598 | 0.75
4 | NCI-H650 | 0.467 | 0.587 | 0.316 | 0.277 | 0.484 | 0.45 | 0.468 | 0.398 | 0.45 | 0.748 | 0.861 | 0.901 | 0.852 | 0.727 | 0.512 | 0.5 | 0.496 | 0.428 | 0.371
5 | NCI-H661 | 0.653 | 0.654 | 0.415 | 0.212 | 0.923 | 0.964 | 0.931 | 0.83 | 0.843 | 0.942 | 1.03 | 0.947 | 0.932 | 0.898 | 0.785 | 0.71 | 0.793 | 0.761 | 0.767
6 | NCI-H727 | 0.338 | 0.499 | 0.391 | 0.428 | 0.438 | 0.285 | 0.426 | 0.473 | 0.307 | 0.365 | 0.393 | 0.26 | 0.362 | 0.664 | 1.2 | 0.981 | 1.11 | 1.16 | 1.13
7 | NCI-H838 | 0.508 | 0.37 | 0.368 | 0.257 | 0.296 | 0.213 | 0.303 | 0.247 | 0.327 | 0.237 | 0.241 | 0.288 | 0.237 | 0.232 | 0.765 | 0.67 | 0.674 | 0.736 | 0.734
8 | NCI-H1355 | – | 0.375 | 0.269 | 0.25 | 0.674 | 0.868 | 0.781 | 0.761 | 0.739 | 0.577 | 0.822 | 0.869 | 0.76 | 0.741 | 0.62 | 0.549 | 0.62 | 0.658 | 0.592
9 | NCI-H1395 | 0.352 | 0.561 | 0.45 | 0.438 | 0.4 | 0.375 | 0.437 | 0.37 | 0.456 | 0.733 | 0.899 | 0.862 | 0.649 | 0.635 | 0.673 | 0.673 | 0.638 | 0.654 | 0.692
10 | NCI-H1437 | 0.797 | 0.722 | 0.378 | 0.184 | 0.541 | 0.452 | 0.472 | 0.452 | 0.377 | 1.07 | 1.26 | 1.15 | 1.1 | 1.04 | 0.703 | 0.801 | 0.732 | 0.899 | 0.769
11 | NCI-H1650 | – | 0.902 | 0.575 | 0.196 | 0.356 | 0.362 | 0.373 | 0.36 | 0.279 | 0.185 | 0.191 | 0.226 | 0.205 | 0.206 | 0.507 | 0.416 | 0.723 | 0.532 | 0.562
12 | NCI-H1651 | 0.532 | 0.485 | 0.349 | 0.174 | 0.439 | 0.393 | 0.412 | 0.332 | 0.491 | 0.697 | 0.9 | 0.915 | 0.807 | 0.658 | 0.665 | 0.484 | 0.593 | 0.597 | 0.633
13 | NCI-H1666 | 0.792 | 0.809 | 0.544 | 0.26 | 0.772 | 0.922 | 0.799 | 0.763 | 0.699 | 0.941 | 1.03 | 1.03 | 0.942 | 0.833 | 1.04 | 1.01 | 1.01 | 1.09 | 1.04
14 | NCI-H1734 | – | 0.509 | 0.225 | 0.165 | 0.384 | 0.451 | 0.478 | 0.444 | 0.343 | 0.177 | 0.17 | 0.223 | 0.192 | 0.168 | 0.874 | 0.639 | 0.698 | 0.836 | 0.758
15 | NCI-H1755 | 0.378 | 0.652 | 0.381 | 0.42 | 0.417 | 0.474 | 0.469 | 0.521 | 0.379 | 0.5 | 0.3 | 0.515 | 0.472 | 0.301 | 0.748 | 0.791 | 0.75 | 0.678 | 0.766
16 | NCI-H1793 | – | 0.251 | 0.255 | 0.198 | 0.388 | 0.381 | 0.357 | 0.385 | 0.316 | 0.167 | 0.154 | 0.205 | 0.154 | 0.183 | 0.675 | – | 0.559 | 0.713 | 0.618
17 | NCI-H1915 | 0.303 | 0.295 | 0.216 | 0.346 | 0.337 | 0.331 | 0.357 | 0.306 | 0.318 | 0.837 | 1.44 | 1.02 | 0.869 | 0.895 | 0.467 | 0.438 | 0.518 | 0.494 | 0.49

Reference: the supplement of paper PMC10307832
